Here are results for 38 compounds from article PMC11544891, “Uncovering the Potential Somatic Angiotensin-Converting Enzyme (sACE) Inhibitory Capacity of Peptides from Acheta domesticus: Insights from In Vitro Gastrointestinal Digestion” (Foods, 2024).

Where “and” joins values, the source holds several entries; their conditions need not be identical. Equal values may be shown once. Read-outs that look alike come from different tables or passages of the source. Residues, ends and D or L forms follow the SMILES beside them. No end group written: not given here.

Broadly, the IC50 is the concentration at which inhibition is half-maximal.

For assay [1], the system named is sACE. The settings on record: cited from earlier work.
Assay [2] has as its target T1, somatic angiotensin-converting enzyme (sACE) (Oryctolagus cuniculus, UniProt P12822).
T1 construct: the ACE working solution was prepared according to Murray et al. [28] using rabbit lung; from tissue; host or cells: rabbit lung
T1 sequence (P12822 34-1310): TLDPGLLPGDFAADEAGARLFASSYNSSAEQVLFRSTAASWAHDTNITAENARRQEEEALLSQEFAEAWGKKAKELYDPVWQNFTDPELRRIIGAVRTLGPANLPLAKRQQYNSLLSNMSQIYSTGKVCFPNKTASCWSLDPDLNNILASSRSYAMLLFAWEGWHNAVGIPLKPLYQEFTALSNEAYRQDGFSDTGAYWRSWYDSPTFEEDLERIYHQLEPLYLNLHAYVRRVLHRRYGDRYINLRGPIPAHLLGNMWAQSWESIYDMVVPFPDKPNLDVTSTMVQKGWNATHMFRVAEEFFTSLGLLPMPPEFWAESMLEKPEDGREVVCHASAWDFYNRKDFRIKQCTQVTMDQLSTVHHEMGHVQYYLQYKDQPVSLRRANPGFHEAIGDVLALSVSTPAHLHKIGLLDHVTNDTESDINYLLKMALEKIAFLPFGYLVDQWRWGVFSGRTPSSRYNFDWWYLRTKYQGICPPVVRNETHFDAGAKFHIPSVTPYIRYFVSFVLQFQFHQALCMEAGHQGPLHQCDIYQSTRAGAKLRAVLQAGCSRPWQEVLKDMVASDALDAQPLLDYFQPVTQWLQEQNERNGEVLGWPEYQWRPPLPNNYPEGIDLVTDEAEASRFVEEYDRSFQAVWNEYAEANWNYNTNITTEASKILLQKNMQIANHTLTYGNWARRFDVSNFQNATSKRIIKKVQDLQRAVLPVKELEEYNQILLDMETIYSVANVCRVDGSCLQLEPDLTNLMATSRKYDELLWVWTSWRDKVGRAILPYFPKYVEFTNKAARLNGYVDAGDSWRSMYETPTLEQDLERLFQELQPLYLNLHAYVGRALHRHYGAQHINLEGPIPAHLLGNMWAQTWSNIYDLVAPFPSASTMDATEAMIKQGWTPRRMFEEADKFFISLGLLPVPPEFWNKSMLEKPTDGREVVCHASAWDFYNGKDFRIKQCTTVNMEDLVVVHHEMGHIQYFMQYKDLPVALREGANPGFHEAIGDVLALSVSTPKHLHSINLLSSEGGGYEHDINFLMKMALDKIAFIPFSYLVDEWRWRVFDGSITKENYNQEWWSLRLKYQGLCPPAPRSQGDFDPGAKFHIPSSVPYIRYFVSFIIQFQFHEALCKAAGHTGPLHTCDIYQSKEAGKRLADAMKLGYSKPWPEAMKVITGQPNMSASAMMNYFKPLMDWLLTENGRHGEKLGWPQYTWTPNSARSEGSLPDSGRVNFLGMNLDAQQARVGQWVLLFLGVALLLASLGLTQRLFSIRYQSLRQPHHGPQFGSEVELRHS
In words: sACE-inhibition fluorimetric assay (o-Abz-Gly-p-Phe(NO2)-Pro-OH substrate). It counts as biochemical, rabbit. Particulars: synthetic peptides; mean ± SD, n = 3; read-out: ACE-Inhibitory Capacity Expressed as IC50 (converted). Here is the method:
The sACE-inhibitory capacity was determined using a fluorimetric assay, as reported by Tavares et al., with some modifications. Briefly, the ACE working solution was prepared according to Murray et al. using rabbit lung posteriorly diluted in 0.15 M Tris-base buffer (pH 8.3) with 0.1 mM ZnCl2. A total of 40 µL of the working solution was added to each 96-well microplate well (Porvair, Norfolk, UK), then adjusted to 80 µL by adding distilled water to the blank (B), control (C), or samples (S). The enzyme reaction was started by adding 160 µL of 0.45 mM o-Abz-Gly-p-Phe(NO2)-Pro-OH dissolved in 0.15 M Tris-base buffer (pH 8.3) containing 1.125 M NaCl, and the mixture was incubated at 37 °C for 30 min. The fluorescence generated was measured using a multiscan microplate fluorimeter (FLUOstar optima, BMG Labtech, Ortenberg, Germany) with excitation and emission wavelengths of 350 and 420 nm, respectively. Data were processed with the software FLUOstar control (version 1.32 R2, BMG Labtech, Ortenberg, Germany). The assay was performed in triplicate, and the resulting data were subjected to a nonlinear fit using GraphPad Prism 5 to determine the IC50 (half maximal inhibitory concentration) values. The resulting data (n = 3) were expressed as the mean ± SD (standard deviation).

The test system of assay [3] is spontaneously hypertensive rats (SHR). The settings on record: cited from earlier work; for anti-hypertensive activity in SHR: Table S2, ref [19] of supplement.
The test system of assay [4] is thoracic aortic rings. Also on record: method as in earlier work. Particulars: Table S2; ref [19] of supplement; cited from earlier work.
Where [5] appears, read: Table S2, ref [17] of supplement, read-out: In Vitro (IC50).
The mark [6] stands for this setting: Table S2, peptides from in vitro digestion (pepsin, pancreatin) of edible insects, ref [14] of supplement.
The mark [7] stands for this setting: Table S2, ref [3] of supplement, read-out: In Vitro (IC50).
The mark [8] stands for this setting: peptides found in fermented milks, read-out: IC50 values for sACE.
Setting [9] is: Table S2, T. molitor larvae, ref [21] of supplement, read-out: In Vitro (IC50).

Turning to “AVFPSIVGR [literature peptide from Apis mellifera pupae hydrolysate]”, in assay [1] (read-out: IC50), the half-maximal inhibitory concentration (IC50) was 6.64 µM. With PIVCF [PIVCF], the IC50 in assay [2] is 4.64 µM and 4.63 µM. Regarding APPPKK, the “In Vitro (IC50)” value in assay [1] (Table S2, ref [9] of supplement) is 47 µg/mL. LSRVP: in assay [1] (setting [5]), the IC50 is 52.7 ± 4.04 µM. Regarding “YETGNGIK [literature peptide from Schistocerca gregaria digestion]”, the IC50 in assay [1] is recorded as 3.25 µg/mL.

Turning to Val-Phe [VF], the IC50 in assay [1] (Table S2, […], ref [19] of supplement, read-out: In Vitro (IC50)) was 120 to 144 µM. In addition, in assay [3], the “anti-hypertensive activity in SHR” value is “anti-hypertensive activity” and the “in vivo antihypertensive capacity” value was “demonstrated in vivo antihypertensive capacity”. In addition, the “inhibitory activity in thoracic aortic rings from male Wistar rats” value in assay [4] is recorded as “inhibitory activity”. For CAIAW [CAIAW], in assay [2], the half-maximal inhibitory concentration (IC50) was 6.56 µM and 6.55 µM. Regarding “VAPEEHPV [literature peptide from Gryllodes sigillatu digestion]”, the “In Vitro (IC50)” value in assay [1] (setting [6]) is 18.85 ± 0.05 µg/mL. For “GKDAVIV [literature peptide from Schistocerca gregaria digestion]”, in assay [1] (setting [6]), the “In Vitro (IC50)” value was 12.82 ± 0.02 µg/mL. Consider RYL, for which the IC50 in assay [1] (peptide from Bombyx mori hydrolysates, read-out: IC50) is 3.31 µM. For the compound LLKPY, the IC50 in assay [1] (Table S2, ref [2] of supplement, read-out: In Vitro (IC50)) is 54.9 µM. Turning to AVQPCF [AVQPCF], in assay [2], the IC50 was 3.69 µM.

As to FFGT, the IC50 in assay [1] (setting [5]) was 19.4 ± 1.7 µM. On to “PPVLVFV [literature peptide from Apis mellifera pupae hydrolysate]”, for which the half-maximal inhibitory concentration (IC50) in assay [1] (setting [7]) is 47.8 µM.

For `CC(C)[C@H](NC(=O)[C@@H](N)CC(=O)O)C(=O)N[C@@H](Cc1c[nH]c2ccccc12)C(=O)O` [DVW] (H-Asp-Val-Trp-OH), in assay [2], the 50% inhibitory concentration (IC50) was 195 µM and 196 µM. For the compound GAMVVH, the IC50 in assay [1] (Table S2, ref [7] of supplement, read-out: In Vitro (IC50)) was 19.4 ± 0.21 µM.

Turning to “FDPFPK (LCFDPFPK) [literature peptide from Schistocerca gregaria digestion]”, in assay [1] (setting [6]), the “In Vitro (IC50)” value is on record as 79.25 ± 0.04 µg/mL. VPP: in assay [1] (setting [8]), the IC50 was 9 µM. “NYVADGLG [literature peptide from Tenebrio molitor larvae digestion]”: the “In Vitro (IC50)” value in assay [1] (setting [6]) is recorded as 12.09 ± 0.08 µg/mL. Consider “AGDDAPR [literature peptide from Tenebrio molitor protein concentrate digestion]”, for which, in assay [1], the IC50 is 8.34 µg/mL. Regarding “LAPSTIK [literature peptide from Gryllodes sigillatu digestion]”, the “In Vitro (IC50)” value in assay [1] (setting [6]) is 11.14 ± 0.08 µg/mL.

Consider “KVEGDLK [literature peptide from Gryllodes sigillatu digestion]”, for which the half-inhibitory concentration (IC50) in assay [1] is on record as 3.67 µg/mL. With “PGKVHIT [literature peptide from Apis mellifera pupae hydrolysate]”, the half-inhibitory concentration (IC50) in assay [1] (setting [7]) was 224 µM. Turning to “YDDGSYKPH [literature peptide from Tenebrio molitor larvae digestion]”, the IC50 in assay [1] was 5.81 µg/mL. YAN: in assay [1] (Table S2, T. molitor larva flour, alcalase, ref [20] of supplement), the “In Vitro (IC50)” value was 17 µg/mL. In assay [1] (setting [9]), the IC50 was 172 µM.

On to QGLGY, for which the IC50 in assay [1] (setting [9]) is 264 µM. Turning to “AAAPVAVAK [literature peptide from Tenebrio molitor larvae digestion]”, the IC50 in assay [1] was 8.31 µg/mL. KHV: in assay [1] (Table S2, ref [8] of supplement, read-out: In Vitro (IC50)), the IC50 was 12.8 µM. For the compound Ala-Val-Phe [AVF], the IC50 is 2120 µM in assay [1] (Table S2, ref [18] of supplement, read-out: In Vitro (IC50)) and 1370 to 1430 µM in assay [1] (Table S2, synthesized peptides, ref [19] of supplement, read-out: In Vitro (IC50)). Also, in assay [3], the “anti-hypertensive activity in SHR” value was “anti-hypertensive activity”. The “inhibitory activity in thoracic aortic rings from male Wistar rats” value in assay [4] is “no inhibitory activity”. For “AIGVGAIER [literature peptide from Schistocerca gregaria digestion]”, the “In Vitro (IC50)” value in assay [1] (setting [6]) was 14.43 ± 0.02 µg/mL. Take IIIGW [IIIGW]: the IC50 in assay [2] was 54.6 µM and 54.5 µM. The same measure, in the same setting: the value for `CC[C@H](C)[C@H](NC(=O)[C@@H](N)CCC(N)=O)C(=O)N[C@H](C(=O)N[C@@H](Cc1c[nH]c2ccccc12)C(=O)O)C(C)C` [QIVW] (H-QIVW-OH) was 140 µM.

For “IIAPPER [literature peptide from Gryllodes sigillatu digestion]”, in assay [1], the IC50 is 6.93 µg/mL.

On to ASL, for which the 50% inhibitory concentration (IC50) in assay [1] (Table S2, ref [5] of supplement, read-out: In Vitro (IC50)) is 102 µM. For the compound NIKY, the IC50 in assay [1] (setting [9]) is 52.2 µM. For the compound IPP, in assay [1] (setting [8]), the 50% inhibitory concentration (IC50) is 5 µM. Regarding GNPWM, the IC50 in assay [1] (Table S2, ref [10] of supplement, read-out: In Vitro (IC50)) was 21.7 µM. For HILG, in assay [1] (setting [9]), the half-inhibitory concentration (IC50) was 2820 µM.
